Results published in patent publication US20110223675A1, “DRUG RELEASE MEANS FROM LIPOSOMES AND METHOD FOR EVALUATING RELEASABILITY” (TERUMO KABUSHIKI KAISHA, priority 2008, published 2011).
Where a name gives a salt, the structure may show the parent alone.

Assay: drug releasability test of liposomes in a shift reagent solution
Format: physicochemical
Experimental: After 1:10 dilution of the sample with a stop solution, the drug, not contained in the liposomes, was separated by ultracentrifugation to provide a sample solution. Separately, 100 μl of a VCR aqueous solution having a different concentration was taken out, to which 900 μl of water was added. Moreover, this solution was diluted with water at 1:10 to provide a reference solution for calibration curve. The sample solution and reference solution were subjected to quantitative determination under the HPLC conditions indicated before with respect to the VCR determination except that an injected amount was at 50 μl only in this determination method.
After dilution of the sample with a stop solution at 1:10, the drug, not contained in the liposomes, was separated by ultracentrifugation. 1 ml of a 0.1 mol/l dihydrogen sodium phosphate solution having a pH of 3.0 was added to and mixed with 1 ml of a supernatant of the sample obtained after the ultracentrifugation to provide a sample solution. Separately, 1 ml of a 0.1 mol/l dihydrogen sodium phosphate solution having a pH of 3.0 was added to and mixed with 1 ml of/a DXR solution having a different concentration to prepare a reference solution for calibration curve. The sample solution and reference solution were subjected to measurement under HPLC conditions indicated with respect to the DXR determination.
Release rate (%)=amount of released drug/total drug amount×100
Ammonium acetate was dissolved so as to make ammonium ion concentrations of 5, 20, 25, 50 and 100 mM and the pH of the solutions was adjusted to 7.0 by use of a 0.1 M sodium hydroxide test solution. Moreover, sodium chloride was added to the solutions so that an osmotic pressure thereof was made at 300 mOsm, thereby providing shift reagent solutions.
The liposomes shown in Preparatory Example 1 were diluted with the shift reagent solution at 1:10 and heated to 37° C. 2.5, 5, 10, 15 and 30 minutes after commencement of the heating, samples were taken out. It is to be noted that the samples were stored under ice cooling before use. The quantitative determination of released VCR was made according to the method described hereinbefore.
Ammonium acetate was dissolved so as to make an ammonium ion concentration of 50 mM, followed by controlling the pH of the solution at 4.0, 5.0, 6.0, 7.0 and 8.0 by use of a 1 M sodium hydroxide test solution. […]
The liposomes shown in Preparatory Example 1 were diluted with the shift reagent solution at 1:10 and heated at 37° C. […] The released VCR was quantitatively determined by the method set out hereinbefore. […]
The liposomes shown in Preparatory Example 1 were diluted with the shift reagent solution at 1:10 and heated at 37° C. […] The quantitative determination of the released VCR was made according to the method set out hereinbefore. […]

| VCR releasability versus pH of shift reagent solution (LIP1, 50 mM ammonium acetate, pH 4.0-8.0, 300 mOsm, 37° C.) | VCR release with amino compounds as shift reagent (LIP2, 50 mM 2-aminoethanol, ethylenediamine or diethylamine, pH 7.4, 37° C.) | DXR releasability (250 mM ethylenediamine/phosphate buffer solution pH 7.4, 37° C., 0-4 hours) | Structure (SMILES) | VCR release versus osmotic pressure of shift reagent solution (LIP1, 50 mM ammonium acetate, pH 7.0, 100-750 mOsm, 37° C.) |
| --- | --- | --- | --- | --- |
| promoted with increasing pH | can be released |  | CC[C@]1(O)C[C@H]2CN(CCc3c([nH]c4ccccc34)[C@@](C(=O)OC)(c3cc4c(cc3OC)N(C=O)[C@H]3[C@@](O)(C(=O)OC)[C@H](OC(C)=O)[C@]5(CC)C=CCN6CC[C@]43[C@@H]65)C2)C1 [VCR, Vincristine sulfate] | a smaller osmotic pressure of the shift reagent solution leads to more promoted release |
|  |  | could be released | COc1cccc2c1C(=O)c1c(O)c3c(c(O)c1C2=O)C[C@@](O)(C(=O)CO)C[C@@H]3O[C@H]1C[C@H](N)[C@H](O)[C@H](C)O1 [DXR, Doxorubicin hydrochloride] |  |
